The target in this assay is T1, EP2 (prostaglandin E2 receptor EP2) (Homo sapiens, UniProt P43116).
T1 construct: gene PTGER2; FLAG-EP2 stably expressed in HEK 293 cells
Description: cAMP accumulation dose-response in HEK […] cells stably expressing FLAG-EP2 (agonist). It is filed as cell-based.

T1 sequence (P43116 whole entry): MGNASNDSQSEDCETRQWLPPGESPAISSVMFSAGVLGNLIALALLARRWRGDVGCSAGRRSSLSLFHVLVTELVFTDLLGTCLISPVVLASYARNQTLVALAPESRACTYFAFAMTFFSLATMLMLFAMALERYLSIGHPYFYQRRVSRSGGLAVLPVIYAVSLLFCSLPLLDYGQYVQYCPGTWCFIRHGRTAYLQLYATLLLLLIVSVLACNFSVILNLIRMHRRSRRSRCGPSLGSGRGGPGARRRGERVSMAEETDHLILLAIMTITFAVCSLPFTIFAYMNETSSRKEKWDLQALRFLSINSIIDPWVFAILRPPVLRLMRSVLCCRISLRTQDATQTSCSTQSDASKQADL

The term EC50 denotes the concentration needed to bring the measured effect to its halfway point. Low values mean a more potent agent, high ones a less potent agent. `CC(C)OC(=O)COc1cccc(NC(=O)c2cc(-c3cccc(F)c3)ccc2F)c1` [PGN9856i] yielded a half-maximal effective concentration (EC50) of 2.11 nM.
